Assays:
[1] = molecular target: HIV-1 reverse transcriptase (Human immunodeficiency virus type 1 group M subtype B, UniProt P04585); experiment: Inhibition of HIV-1 reverse transcriptase; format: biochemical, human immunodeficiency virus type 1 (HIV-1)
[2] = molecular target: HBV DNA polymerases (Hepatitis B virus genotype D subtype ayw, UniProt P03156); experiment: Inhibition of HBV DNA polymerases; format: biochemical; conditions: activity compared with the (S)-enantiomer
HBV DNA polymerases, sequence (P03156 whole entry): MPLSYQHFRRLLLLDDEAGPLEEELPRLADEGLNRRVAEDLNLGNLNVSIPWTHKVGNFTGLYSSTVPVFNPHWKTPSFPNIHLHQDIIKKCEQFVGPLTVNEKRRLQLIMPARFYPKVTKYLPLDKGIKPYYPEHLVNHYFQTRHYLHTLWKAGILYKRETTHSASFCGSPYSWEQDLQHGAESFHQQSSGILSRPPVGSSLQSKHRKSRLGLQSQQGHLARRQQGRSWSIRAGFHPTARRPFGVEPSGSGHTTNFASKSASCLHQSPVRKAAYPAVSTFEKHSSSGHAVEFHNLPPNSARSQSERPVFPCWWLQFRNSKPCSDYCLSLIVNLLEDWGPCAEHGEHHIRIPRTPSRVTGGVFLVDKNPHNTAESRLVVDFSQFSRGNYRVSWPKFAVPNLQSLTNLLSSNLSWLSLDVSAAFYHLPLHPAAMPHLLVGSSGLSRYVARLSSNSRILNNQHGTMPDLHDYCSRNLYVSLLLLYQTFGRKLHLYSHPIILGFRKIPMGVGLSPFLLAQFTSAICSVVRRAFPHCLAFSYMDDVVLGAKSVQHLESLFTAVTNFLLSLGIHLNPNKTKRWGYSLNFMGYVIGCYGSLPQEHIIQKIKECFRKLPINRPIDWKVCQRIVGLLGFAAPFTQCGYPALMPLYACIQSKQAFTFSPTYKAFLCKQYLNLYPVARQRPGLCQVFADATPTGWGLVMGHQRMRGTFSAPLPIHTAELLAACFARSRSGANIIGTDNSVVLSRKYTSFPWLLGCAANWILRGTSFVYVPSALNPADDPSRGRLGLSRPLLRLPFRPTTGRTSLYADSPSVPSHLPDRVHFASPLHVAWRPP

| Compound | inhibition of HIV-1 reverse transcriptase ([1]; activity compared with the (S)-enantiomer) | inhibition of HBV DNA polymerases [2] | inhibition of RNA-directed DNA polymerase (reverse transcriptase) activity of HIV-1 [1] |
| --- | --- | --- | --- |
| Nc1nc2c(ncn2CC[C@H](CO)COP(=O)(O)OP(=O)(O)OP(=O)(O)O)c(=O)[nH]1 (single isomer, unassigned) [(R)-enantiomer of PCV-TP] | more active than the (S)-enantiomer | more active than the (S)-enantiomer | – |
| penciclovir triphosphate [triphosphate derivative of penciclovir, reference compound] | – | – | inhibits |

From patent publication US20060069108A1, “Use of (R)-penciclovir triphosphate for the manufacture of a medicament for the treatment of viral diseases” (priority 1995, published 2006)
